{
  "source": "ChEMBL document CHEMBL2401709",
  "about": "(J Med Chem, 2013)",
  "note": "pIC50: −log10 of the molar value.",
  "data": [
    {"molecular_target": "Cyclin-dependent kinase 2/cyclin E1 (Homo sapiens, UniProt P24941)", "assay": "Inhibition of human recombinant CDK2/Cyclin E expressed in baculovirus infected sf9 cells using histone H1 as substrate", "conditions": "not given", "values": [
      {"smiles": "NC1CCC(Nc2nc(NCc3ccc(-c4ccco4)cc3)c3ncn(C4CCCC4)c3n2)CC1", "note": "(stereo not drawn)", "pIC50": 7.94},
      {"smiles": "NC1CCC(Nc2nc(NCc3ccc(-c4ccsc4)cc3)c3ncn(C4CCCC4)c3n2)CC1", "note": "(stereo not drawn)", "pIC50": 7.85},
      {"smiles": "COc1ccccc1-c1ccc(CNc2nc(NC3CCC(N)CC3)nc3c2ncn3C2CCCC2)cn1", "note": "(stereo not drawn)", "pIC50": 7.47},
      {"smiles": "Nc1ccccc1-c1ccc(CNc2nc(NC3CCC(N)CC3)nc3c2ncn3C2CCCC2)cn1", "note": "(stereo not drawn)", "pIC50": 8.00},
      {"smiles": "NC1CCC(Nc2nc(NCc3ccc(-c4cccc(F)c4)cc3)c3ncn(C4CCCC4)c3n2)CC1", "note": "(stereo not drawn)", "pIC50": 7.47},
      {"smiles": "NC1CCC(Nc2nc(NCc3ccc(-c4ccccc4O)cc3)c3ncn(C4CCCC4)c3n2)CC1", "note": "(stereo not drawn)", "pIC50": 7.17}
    ]},
    {"molecular_target": "Cyclin-dependent kinase 1 (Homo sapiens, UniProt P06493)", "sequence (P06493 whole entry)": "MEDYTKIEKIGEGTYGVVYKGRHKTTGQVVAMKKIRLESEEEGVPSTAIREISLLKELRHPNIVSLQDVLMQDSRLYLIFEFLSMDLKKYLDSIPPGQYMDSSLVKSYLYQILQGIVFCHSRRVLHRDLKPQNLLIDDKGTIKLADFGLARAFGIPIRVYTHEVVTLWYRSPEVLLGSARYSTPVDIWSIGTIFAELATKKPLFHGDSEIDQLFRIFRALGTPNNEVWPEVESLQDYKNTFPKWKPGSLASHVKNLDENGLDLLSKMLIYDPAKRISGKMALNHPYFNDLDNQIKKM", "assay": "Inhibition of human recombinant CDK1", "conditions": "not given", "values": [
      {"smiles": "NC1CCC(Nc2nc(NCc3ccc(-c4ccccc4O)cc3)c3ncn(C4CCCC4)c3n2)CC1", "note": "(stereo not drawn)", "pIC50": 6.11}
    ]},
    {"system": "HeLa", "assay": "Cytotoxicity against human HeLa cells assessed as growth inhibition after 72 hrs by calcein AM staining-based fluoroscence assay", "assay_type": "functional, cell-based", "conditions": "not given", "values": [
      {"smiles": "NC1CCC(Nc2nc(NCc3ccc(-c4ccco4)cc3)c3ncn(C4CCCC4)c3n2)CC1", "note": "(stereo not drawn)", "pIC50": 7.15},
      {"smiles": "NC1CCC(Nc2nc(NCc3ccc(-c4ccsc4)cc3)c3ncn(C4CCCC4)c3n2)CC1", "note": "(stereo not drawn)", "pIC50": 6.66},
      {"smiles": "COc1ccccc1-c1ccc(CNc2nc(NC3CCC(N)CC3)nc3c2ncn3C2CCCC2)cn1", "note": "(stereo not drawn)", "pIC50": 7.41},
      {"smiles": "Nc1ccccc1-c1ccc(CNc2nc(NC3CCC(N)CC3)nc3c2ncn3C2CCCC2)cn1", "note": "(stereo not drawn)", "pIC50": 6.27},
      {"smiles": "NC1CCC(Nc2nc(NCc3ccc(-c4cccc(F)c4)cc3)c3ncn(C4CCCC4)c3n2)CC1", "note": "(stereo not drawn)", "pIC50": 6.35},
      {"smiles": "NC1CCC(Nc2nc(NCc3ccc(-c4ccccc4O)cc3)c3ncn(C4CCCC4)c3n2)CC1", "note": "(stereo not drawn)", "pIC50": 5.38}
    ]},
    {"system": "G-361", "assay": "Cytotoxicity against human G361 cells assessed as growth inhibition after 72 hrs by calcein AM staining-based fluoroscence assay", "assay_type": "functional, cell-based", "conditions": "G-361, 72 h", "values": [
      {"smiles": "NC1CCC(Nc2nc(NCc3ccc(-c4ccco4)cc3)c3ncn(C4CCCC4)c3n2)CC1", "note": "(stereo not drawn)", "pIC50": 6.79},
      {"smiles": "NC1CCC(Nc2nc(NCc3ccc(-c4ccsc4)cc3)c3ncn(C4CCCC4)c3n2)CC1", "note": "(stereo not drawn)", "pIC50": 6.24},
      {"smiles": "COc1ccccc1-c1ccc(CNc2nc(NC3CCC(N)CC3)nc3c2ncn3C2CCCC2)cn1", "note": "(stereo not drawn)", "pIC50": 6.85},
      {"smiles": "Nc1ccccc1-c1ccc(CNc2nc(NC3CCC(N)CC3)nc3c2ncn3C2CCCC2)cn1", "note": "(stereo not drawn)", "pIC50": 6.14},
      {"smiles": "NC1CCC(Nc2nc(NCc3ccc(-c4cccc(F)c4)cc3)c3ncn(C4CCCC4)c3n2)CC1", "note": "(stereo not drawn)", "pIC50": 6.09},
      {"smiles": "NC1CCC(Nc2nc(NCc3ccc(-c4ccccc4O)cc3)c3ncn(C4CCCC4)c3n2)CC1", "note": "(stereo not drawn)", "pIC50": 5.38}
    ]},
    {"system": "HCT-116", "assay": "Cytotoxicity against human HCT116 cells assessed as growth inhibition after 72 hrs by calcein AM staining-based fluoroscence assay", "assay_type": "functional, cell-based", "conditions": "HCT-116, 72 h", "values": [
      {"smiles": "NC1CCC(Nc2nc(NCc3ccc(-c4ccco4)cc3)c3ncn(C4CCCC4)c3n2)CC1", "note": "(stereo not drawn)", "pIC50": 6.89},
      {"smiles": "NC1CCC(Nc2nc(NCc3ccc(-c4ccsc4)cc3)c3ncn(C4CCCC4)c3n2)CC1", "note": "(stereo not drawn)", "pIC50": 6.50},
      {"smiles": "COc1ccccc1-c1ccc(CNc2nc(NC3CCC(N)CC3)nc3c2ncn3C2CCCC2)cn1", "note": "(stereo not drawn)", "pIC50": 6.75},
      {"smiles": "Nc1ccccc1-c1ccc(CNc2nc(NC3CCC(N)CC3)nc3c2ncn3C2CCCC2)cn1", "note": "(stereo not drawn)", "pIC50": 6.20},
      {"smiles": "NC1CCC(Nc2nc(NCc3ccc(-c4cccc(F)c4)cc3)c3ncn(C4CCCC4)c3n2)CC1", "note": "(stereo not drawn)", "pIC50": 6.26},
      {"smiles": "NC1CCC(Nc2nc(NCc3ccc(-c4ccccc4O)cc3)c3ncn(C4CCCC4)c3n2)CC1", "note": "(stereo not drawn)", "pIC50": 5.36}
    ]},
    {"system": "HOS", "assay": "Cytotoxicity against human HOS cells assessed as growth inhibition after 72 hrs by calcein AM staining-based fluoroscence assay", "assay_type": "functional, cell-based", "conditions": "not given", "values": [
      {"smiles": "NC1CCC(Nc2nc(NCc3ccc(-c4ccco4)cc3)c3ncn(C4CCCC4)c3n2)CC1", "note": "(stereo not drawn)", "pIC50": 6.99},
      {"smiles": "NC1CCC(Nc2nc(NCc3ccc(-c4ccsc4)cc3)c3ncn(C4CCCC4)c3n2)CC1", "note": "(stereo not drawn)", "pIC50": 6.92},
      {"smiles": "COc1ccccc1-c1ccc(CNc2nc(NC3CCC(N)CC3)nc3c2ncn3C2CCCC2)cn1", "note": "(stereo not drawn)", "pIC50": 6.91},
      {"smiles": "Nc1ccccc1-c1ccc(CNc2nc(NC3CCC(N)CC3)nc3c2ncn3C2CCCC2)cn1", "note": "(stereo not drawn)", "pIC50": 6.40},
      {"smiles": "NC1CCC(Nc2nc(NCc3ccc(-c4cccc(F)c4)cc3)c3ncn(C4CCCC4)c3n2)CC1", "note": "(stereo not drawn)", "pIC50": 6.68},
      {"smiles": "NC1CCC(Nc2nc(NCc3ccc(-c4ccccc4O)cc3)c3ncn(C4CCCC4)c3n2)CC1", "note": "(stereo not drawn)", "pIC50": 5.94}
    ]},
    {"system": "MCF7", "assay": "Cytotoxicity against human MCF7 cells assessed as growth inhibition after 72 hrs by calcein AM staining-based fluoroscence assay", "assay_type": "functional, cell-based", "conditions": "MCF7, 72 h", "values": [
      {"smiles": "NC1CCC(Nc2nc(NCc3ccc(-c4ccco4)cc3)c3ncn(C4CCCC4)c3n2)CC1", "note": "(stereo not drawn)", "pIC50": 7.07},
      {"smiles": "NC1CCC(Nc2nc(NCc3ccc(-c4ccsc4)cc3)c3ncn(C4CCCC4)c3n2)CC1", "note": "(stereo not drawn)", "pIC50": 6.84},
      {"smiles": "COc1ccccc1-c1ccc(CNc2nc(NC3CCC(N)CC3)nc3c2ncn3C2CCCC2)cn1", "note": "(stereo not drawn)", "pIC50": 7.09},
      {"smiles": "Nc1ccccc1-c1ccc(CNc2nc(NC3CCC(N)CC3)nc3c2ncn3C2CCCC2)cn1", "note": "(stereo not drawn)", "pIC50": 6.93},
      {"smiles": "NC1CCC(Nc2nc(NCc3ccc(-c4cccc(F)c4)cc3)c3ncn(C4CCCC4)c3n2)CC1", "note": "(stereo not drawn)", "pIC50": 6.53},
      {"smiles": "NC1CCC(Nc2nc(NCc3ccc(-c4ccccc4O)cc3)c3ncn(C4CCCC4)c3n2)CC1", "note": "(stereo not drawn)", "pIC50": 5.54}
    ]},
    {"system": "K562", "assay": "Cytotoxicity against human K562 cells assessed as growth inhibition after 72 hrs by calcein AM staining-based fluoroscence assay", "assay_type": "functional, cell-based", "conditions": "K562, 72 h", "values": [
      {"smiles": "NC1CCC(Nc2nc(NCc3ccc(-c4ccco4)cc3)c3ncn(C4CCCC4)c3n2)CC1", "note": "(stereo not drawn)", "pIC50": 7.02},
      {"smiles": "NC1CCC(Nc2nc(NCc3ccc(-c4ccsc4)cc3)c3ncn(C4CCCC4)c3n2)CC1", "note": "(stereo not drawn)", "pIC50": 6.82},
      {"smiles": "COc1ccccc1-c1ccc(CNc2nc(NC3CCC(N)CC3)nc3c2ncn3C2CCCC2)cn1", "note": "(stereo not drawn)", "pIC50": 7.18},
      {"smiles": "Nc1ccccc1-c1ccc(CNc2nc(NC3CCC(N)CC3)nc3c2ncn3C2CCCC2)cn1", "note": "(stereo not drawn)", "pIC50": 6.70},
      {"smiles": "NC1CCC(Nc2nc(NCc3ccc(-c4cccc(F)c4)cc3)c3ncn(C4CCCC4)c3n2)CC1", "note": "(stereo not drawn)", "pIC50": 6.54},
      {"smiles": "NC1CCC(Nc2nc(NCc3ccc(-c4ccccc4O)cc3)c3ncn(C4CCCC4)c3n2)CC1", "note": "(stereo not drawn)", "pIC50": 5.58}
    ]}
  ]
}
